The text below walks through data of patent US20120040998A1, “2-ALKYL PIPERIDINE MGLUR5 RECEPTOR MODULATORS” (priority 2009, published 2012).

For the experiment, the target named is T1, human mGluR5A (Homo sapiens, UniProt P41594).
T1 construct: expressed in transfected cells
Briefly: FLIPR Ca2+ mobilization assay, potentiation in the presence of 300 nM glutamate (EC20). The format is cell-based. An excerpt:
The utility of the compounds in accordance with the present invention as positive allosteric modulators of metabotropic glutamate receptor activity, in particular mGluR5 activity, may be readily determined without undue experimentation by methodology well known in the art, including O'Brien et al., Molecular Pharmacology 2003, 64(3) 731-740. In particular, the compounds of the following examples had activity in reference assays by enhancing mGluR5 activity. […] Changes in intracellular Ca^2+ were measured with Fluo-4AM ester (Invitrogen/Molecular Probes), which was detected on a Fluorometric Imaging Plate Reader (FLIPR, Molecular Devices, Sunnyvale, Calif.). In a typical experiment the mGluR5 positive allosteric modulatory activity of the compounds of the present invention was determined in accordance with the following experimental method.
Cell Culture: Chinese Hamster Ovary (CHO) cells expressing human mGluR5A were maintained in growth medium containing DMEM, 10% dialyzed Fetal Bovine Serum, 50 units/mL Penicillin, 50 ug/mL Streptomycin, 2 mM L-glutamine, 1×MEM non-essential amino acids, 1 mM sodium pyruvate, 25 mM HEPES, 55 uM 2-mercaptoethanol, 5 ug/mL Puromycin, and 250 ug/mL Zeocin at 37° C. and 5% CO2. The day before the experiment, the cells were washed and seeded in “plating media” containing only DMEM, 10% dialyzed Fetal Bovine Serum, 50 units/mL Penicillin, and 50 ug/mL Streptomycin at a density of 50,000 cells/well (100 uL/well) in black 384-well clear-bottom PDL-coated plates. The cells were grown overnight at 37° C. and 6% CO2. This overnight glutamine/glutamate starvation allowed for consistent expression of the mGluR5A receptor, and the ability to add a known amount of agonist (glutamate in most cases) on the day of the experiment.
Fluorescent Ca^2+ mobilization (FLIPR) assay: The day of the experiment, the cells were washed with 37° C. Assay Buffer (Hanks Balanced Salt Solution with CaCl2 and MgCl2, 20 mM HEPES, 2.5 mM Probenecid, 0.1% BSA) with an automated plate washer (3×100 uL, aspiration 3 mm from bottom leaving ˜30 uL of buffer in each well). After washing, 30 uL of dye loading buffer (4 uM Fluo-4AM, 0.04% Pluronic acid, and 1% dialyzed FBS in assay buffer) were added to each well of the plates for 2 uM Fluo-4AM final concentration. The plates were incubated at 37° C. and 6% CO2 for 1 hour to allow for dye loading. After dye loading, the cells were washed again as above, and placed on the FLIPR. Assays were conducted with two possible scenarios: 1) To determine the potencies of the compounds, as either agonists of mGluR5 or potentiators of mGluR5 in the presence of a sub-threshold amount of glutamate, 10-point titrations of the compounds (1:3 dilution between each point, 30-0.0015 uM final concentrations) were added to the cells, followed by the addition of the EC20 of glutamate (300 nM) to the cells. 2) To determine the cooperativity of the compounds with the natural agonist (glutamate), single concentrations of the compounds were added to the cells, followed by the addition of a 10-point titration of glutamate (1:3 dilution between each point, 1000-0.05 uM final concentrations). […] For both scenarios above, operation of the FLIPR was the same. Baseline fluorescence was monitored for 10 seconds, followed by the addition of compounds diluted in Assay Buffer (1% DMSO concentration after this addition, 0.66% final DMSO concentration after agonist addition). After monitoring fluorescence for 5 minutes, during which time any intrinsic agonist activity of the compounds would have been detected, the agonist (glutamate) also diluted in assay buffer was then added to the cells. The response was then monitored for an additional 3 minutes. In scenario #1, the peak during the final 3 minutes was used for potentiator data, and the peak during the 5 minutes post compound addition was used for compound agonist data. […]
For orientation: Calcium assays in cells follow changes in intracellular calcium, usually with a dye or a luminescent sensor.

The mark [1] stands for this setting: potentiation in presence of 300 nM glutamate, read-out: EC50 in potentiating/enhancing the mGluR5 receptor in the FLIPR assay.
Where [2] appears, read: potentiation, CHO cells expressing human mGluR5A, in presence of 300 nM glutamate, inflection points, read-out: FLIPR EC50.

Each structure is given as a SMILES string. Like-named read-outs stand apart in the source and are kept apart here.

T1 sequence (P41594 21-1180 isoform P41594-2 limits assumed): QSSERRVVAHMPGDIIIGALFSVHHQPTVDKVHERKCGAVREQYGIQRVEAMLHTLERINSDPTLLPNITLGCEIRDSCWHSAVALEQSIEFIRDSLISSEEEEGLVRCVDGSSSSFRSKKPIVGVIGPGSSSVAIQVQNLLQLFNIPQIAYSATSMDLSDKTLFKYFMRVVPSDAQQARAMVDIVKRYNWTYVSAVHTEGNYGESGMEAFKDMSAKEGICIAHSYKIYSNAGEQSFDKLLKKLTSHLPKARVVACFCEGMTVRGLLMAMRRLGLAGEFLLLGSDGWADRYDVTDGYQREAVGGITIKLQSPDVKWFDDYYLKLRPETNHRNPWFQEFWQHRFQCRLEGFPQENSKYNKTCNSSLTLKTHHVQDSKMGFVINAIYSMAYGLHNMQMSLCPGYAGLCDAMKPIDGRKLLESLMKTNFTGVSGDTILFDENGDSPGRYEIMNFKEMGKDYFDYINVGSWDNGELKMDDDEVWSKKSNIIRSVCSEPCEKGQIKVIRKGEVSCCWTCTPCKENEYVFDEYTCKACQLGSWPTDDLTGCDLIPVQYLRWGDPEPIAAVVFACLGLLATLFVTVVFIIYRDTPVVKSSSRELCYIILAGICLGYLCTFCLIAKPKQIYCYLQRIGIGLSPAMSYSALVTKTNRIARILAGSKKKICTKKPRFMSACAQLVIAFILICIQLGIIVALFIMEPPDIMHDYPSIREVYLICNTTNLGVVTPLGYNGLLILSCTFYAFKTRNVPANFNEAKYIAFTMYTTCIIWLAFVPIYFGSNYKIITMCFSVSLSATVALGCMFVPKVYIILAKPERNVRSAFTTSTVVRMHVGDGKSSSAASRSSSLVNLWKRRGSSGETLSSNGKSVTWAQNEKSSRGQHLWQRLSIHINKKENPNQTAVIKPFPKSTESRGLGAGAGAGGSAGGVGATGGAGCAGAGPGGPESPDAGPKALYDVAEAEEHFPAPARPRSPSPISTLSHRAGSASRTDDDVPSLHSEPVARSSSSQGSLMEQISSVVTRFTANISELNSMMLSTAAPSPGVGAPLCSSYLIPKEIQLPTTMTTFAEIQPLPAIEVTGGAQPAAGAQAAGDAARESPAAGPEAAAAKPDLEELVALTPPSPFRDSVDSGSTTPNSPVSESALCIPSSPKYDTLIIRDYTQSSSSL

As to `C[C@@H]1CC[C@H](c2noc(-c3ccc(F)cc3)n2)CN1C(=O)c1ccc(F)cc1` [Example 1-16, (2R,5S)-1-(4-fluorobenzoyl)-5-[5-(4-fluorophenyl)-1,2,4-oxadiazol-3-yl]-2-methylpiperidine], the EC50 runs as follows: under setting [1], under 1000 nM; under setting [2], 124 nM.

With `C[C@@H]1CC[C@H](c2nc(-c3cc(Cl)c[nH]3)no2)CN1C(=O)c1ccc(F)cc1` [Example 5-5, (2R,5S)-5-[3-(4-Chloro-1H-pyrrol-2-yl)-1,2,4-oxadiazol-5-yl]-1-(4-fluorobenzoyl)-2-methylpiperidine], the EC50 under setting [1] is under 1000 nM and the EC50 under setting [2] was determined as 19 nM.

For `C[C@@H]1CC[C@H](c2noc(-c3ccc(F)cn3)n2)CN1C(=O)c1ccc(F)cc1` [Example 4-4, 5-Fluoro-2-{3-[(3S,6R)-1-(4-fluorobenzoyl)-6-methylpiperidin-3-yl]-1,2,4-oxadiazol-5-yl}pyridine], the EC50 under setting [1] is under 1000 nM and the EC50 under setting [2] was 210 nM.

Turning to `C[C@@H]1CC[C@H](c2noc(-c3cc(Cl)c[nH]3)n2)CN1C(=O)c1ccc(F)nc1` [Example 9-9, 5-({(2R,5S)-5-[5-(4-chloro-1H-pyrrol-2-yl)-1,2,4-oxadiazol-3-yl]-2-methylpiperidin-1-yl}carbonyl)-2-fluoropyridine], the EC50 is, setting by setting: under setting [1], under 1000 nM; under setting [2], 146 nM.

On to `C[C@@H]1CC[C@H](c2noc(-c3cc(Cl)c[nH]3)n2)CN1C(=O)c1ccc(F)cc1` [Example 2-4, (2R,5S)-5-[5-(4-chloro-1H-pyrrol-2-yl)-1,2,4-oxadiazol-3-yl]-1-(4-fluorobenzoyl)-2-methylpiperidine], for which the EC50 under setting [1] is under 1000 nM and the EC50 under setting [2] came out at 25 nM.

Consider `C[C@H]1CC[C@@H](c2noc(-c3cc(Cl)c[nH]3)n2)CN1C(=O)c1ccc(F)cc1` [Example 2-3, (2S,5R)-5-[5-(4-chloro-1H-pyrrol-2-yl)-1,2,4-oxadiazol-3-yl]-1-(4-fluorobenzoyl)-2-methylpiperidine], for which the EC50 is, setting by setting: under setting [1], under 1000 nM; under setting [2], 486 nM.

Regarding `C[C@@H]1CC[C@H](c2nc(-c3cc(Cl)c[nH]3)no2)CN1C(=O)c1ccc(F)nc1` [Example 9-18, 5-({(2R,5S)-5-[3-(4-chloro-1H-pyrrol-2-yl)-1,2,4-oxadiazol-5-yl]-2-methylpiperidin-1-yl}carbonyl)-2-fluoropyridine], the EC50 by setting is: under setting [1], under 1000 nM; under setting [2], 91 nM.

On to `COc1cc(C(=O)N2C[C@@H](c3nc(-c4cc(Cl)c[nH]4)no3)CC[C@H]2C)ccn1` [Example 9-22, 4-({(2R,5S)-5-[3-(4-chloro-1H-pyrrol-2-yl)-1,2,4-oxadiazol-5-yl]-2-methylpiperidin-1-yl}carbonyl)-2-methoxypyridine], for which the EC50 is, setting by setting: under setting [1], under 1000 nM; under setting [2], 55 nM.
